According to patent US12121515B2, “Piperidine urea derivatives as soluble epoxide hydrolase inhibitors” (NeuroPn Therapeutics, Inc., priority 2021, dated 2024):

Assays:
[1] = system: MPTP induced toxicity on neuronal cells; experiment: MPTP induced Parkinsonism in zebrafish, brain pathology (degenerated neurons in mid brain smear); assay type: in vivo; settings: H&E
Experimental: Fishes were conditioned to consume three pellets a day. […] To prepare fish feed pellets containing L-DOPA 4 μl of 1 ng/μl of L-DOPA stock solution was distributed across 3 fish feed pellets ‘1.3 μl/pellet. Fish were fed, three pellets a day. Concentration of compounds dosed was controlled by number of pellets and the quantity of compound per pellet. Feed pellets without drug but with vehicle were used as placebo or control.
Brain Pathology: Fish were anesthetized with 15° C. water and sacrificed by a cut between the brain and the spinal cord. Brain was dissected and portions of mid brain were removed with a pin and knife. The brain tissue was smeared on a glass slide and stained with Haematoxylin & Eosin respectively for 2 minutes each followed by water washes. Slides were viewed at 45× magnification using Labomed LX 400 microscope. The number of degenerated neurons were counted for three fields per smear. […]

[2] = system: MPTP induced Parkinsonism in zebrafish; experiment: MPTP induced Parkinsonism in zebrafish, locomotor activity; assay type: in vivo; settings: adult zebrafish, MPTP model; oral in feed pellets; may reflect L-DOPA-induced dyskinesia; FIG. 4
Experimental: The methodology described by Bretaud et al (Neurotoxicol Teratol. 2004 November-December; 26(6), 857-64) was used to study parkinsonism in zebrafish. For MPTP (1-methyl-4-phenyl-1,2,3,6-tetrahydropyridine) induced Parkinsonism, adult zebrafish were injected with 3 μl of 60 μg/g of MPTP as intramuscular injection along the lateral muscles.
Compound B of Formula I or L-DOPA were dosed orally by mixing with the fish feed pellets. Fishes were conditioned to consume three pellets a day. To prepare feed containing 1 ng of Compound B of Formula I, stock of 1 ng/μl Compound B was diluted to 10 μl in Ringer's solution and distributed to 3 fish feed pellets (‘3.3 μl per pellet). Prior to adding Compound B, fish feed pellets were dried at 37° C. for 1 hour to remove moisture. Post addition of Compound B solution and absorption by the pellet, pellets were stored at 4° C. […] Concentration of compounds dosed was controlled by number of pellets and the quantity of compound per pellet. […]
Locomotor Activity: The observation tank was divided into four zones by drawing three vertical lines at equal distances, at a length of 6.25 cm per zone. The number of lines that adult zebrafish crossed over a period of 5 minutes was counted. Fishes were allowed to acclimatize in measurement tanks for a period of 30 minutes before readings were taken. […]

N[C@@H](Cc1ccc(O)c(O)c1)C(=O)O [L-DOPA]
brain pathology (brain smear appearance, effect on MPTP induced toxicity on neuronal cells) ([1]; FIG. 5): did not have significant effect | change in neurodegenerative cell number compared to MPTP group ([1]; day 8, FIG. 5): non-significant decrease | movement behavior on continued treatment (beyond day 3) [2]: heightened movement behavior
